Data from patent US9358238B2, “Method of enhancing the performance of broiler chickens” (Intervet Inc., priority 2012, dated 2016).

Legend:
Broiler chickens [1] = conditions: 1 ppm for 18 days (28 to 46 days of age); cited from earlier work
Broiler chickens [2] = test: Broiler chickens fed zilpaterol daily at 1 ppm from day 8 to day 56 of age (Example 1); format: in vivo, chicken
Source text: Broiler chickens were fed zilpaterol every day at 1 ppm from day 8 until day 56 of age. The observed zilpaterol performance response was relatively small. In this study, non significant performance increases in Average Daily Gain (ADG) of 1.3-2.6% and Feed Efficiency (FE) of 0.6%-1.9% were reported.

[3] = system: broiler chickens (Cobb 500 strain); test: 42 day floor pen study, performance response of broiler chickens fed zilpaterol for 7 or 14 days (Example 2); format: in vivo
Source text: “Feed efficiency” refers to: feed consumed (lbs)/total live body weight (lbs). “Adjusted Feed efficiency” refers to feed consumed (lbs)/(total live body weight (lbs)+body weight (lbs) of mortalities).
“Average daily gain” refers to body weight gain (lbs)/number of days.
“Breast weight” refers to breast weight (lbs) at slaughter.
“Carcass yield” refers to carcass weight (lbs)/live body weight (lbs)×100.
“Breast yield” refers to breast weight (lbs)/live body weight (lbs)×100.
Zilpaterol hydrochloride was fed to broiler chickens in a 42 day floor pen study to evaluate the performance response of zilpaterol compared to a non-medicated control group. Six zilpaterol treatment groups consisted of three concentration levels (1, 3, and 5 ppm) and two feeding durations (7 and 14 days) and were administered in feed plus a non medicated control group. A total of 1,680 broiler chickens were allocated by sex to 56 pens with 30 birds/pen, and 4 pens/sex/group (240 birds/group). The 7 day zilpaterol treatments began at day 35 and continued to day 42 of age. The 14 day zilpaterol treatments began at day 28 and continued until day 42 of age.
Post-treatment, there were no statistically significant 2-way or 3-way interactions of sex with duration of treatment and concentration; therefore pooled results over sex are discussed. A summary of the performance response of broiler chickens fed various levels for zilpaterol (0, 1, 3, 5, ppm) and feeding durations (7, 14 days) compared to the control are shown in the following table:
A total of 1,680 broiler chickens (Cobb 500 strain) were allocated by sex to 56 pens (28 pens of males, 28 pens of females) with 30 birds per pen according to a randomized complete block design during a 42 day study. The six zilpaterol treatment groups were in a 2×3 factorial arrangement with two feeding durations of 7 or 14 days (i.e., days 35-42 or 28-42 respectively) and three zilpaterol concentration levels of 1, 3, or 5 ppm plus an un-supplemented (negative) control group. Treatment groups were randomly assigned by sex to pens within each block.

Japanese quails = conditions: 0, 0.2, 0.225, 0.25 mg/kg of live body weight, 21 days, birds at 26 days of age; cited from earlier work
chickens = conditions: skip a day feeding; 0, 0.2, 0.25, 0.3 mg/kg of live body weight, 20 days from 25 days of age; cited from earlier work
Broiler chickens [4] = conditions: 0, 5 and 10 mg/kg, 3 to 6 weeks of age; cited from earlier work
[5] = 1 ppm every day, day 8 until day 56 of age, non significant
[6] = 1 ppm in feed, 7 days (days 35-42)
[7] = 1 ppm in feed, 14 days (days 28-42)
[8] = 3 ppm in feed, 7 days (days 35-42)
[9] = 3 ppm in feed, 14 days (days 28-42)
[10] = 5 ppm in feed, 7 days (days 35-42)
[11] = 5 ppm in feed, 14 days (days 28-42)

## CC(C)(C)NCC(O)c1cc(Cl)c(N)c(Cl)c1 (stereo not drawn) [Clenbuterol]
Broiler chickens [1]
  improvement in average daily gain (ADG) above controls: 3.3%
  improvement in feed efficiency (FE) above controls: 3.0%

## CC(C)NC1CCn2c(=O)[nH]c3cccc(c32)C1O (stereo not drawn) [Zilpaterol, 4,5,6,7-tetrahydro-7-hydroxy-6-(isopropylamino) imidazo[4,5,1-jk]-[1]benzazepin-2(1H)-one]
Broiler chickens [2]; 1 ppm daily for 7 weeks, P<0.01
  carcass yield improvement compared to control: 2%
Broiler chickens [2]; [5]
  performance increase in Average Daily Gain (ADG): 1.3-2.6%
  performance increase in Feed Efficiency (FE): 0.6%-1.9
[3]; 0 vs 1 ppm, 7 days
  Improvement (%) of Average Daily Gain: 5.4%
  Improvement (%) of Body Weight Day 42: 2.1%
  Improvement (%) of Breast Weight: 3.8%
  Improvement (%) of Carcass Yield: 4.0%
  Improvement (%) of Feed Efficiency (FE): 8.0%
[3]; 0 vs 1 ppm, 14 days
  Improvement (%) of Average Daily Gain: 3.3%
  Improvement (%) of Body Weight Day 42: 3.9%
  Improvement (%) of Breast Weight: 4.2%
  Improvement (%) of Carcass Yield: 1.8%
  Improvement (%) of Feed Efficiency (FE): 3.3%
[3]; 0 vs 3 ppm, 7 days
  Improvement (%) of Average Daily Gain: 18.5%
  Improvement (%) of Body Weight Day 42: 3.9%
  Improvement (%) of Breast Weight: 9.1%
  Improvement (%) of Carcass Yield: 1.7%
  Improvement (%) of Feed Efficiency (FE): 25.9%
[3]; 0 vs 3 ppm, 14 days
  Improvement (%) of Average Daily Gain: 9.2%
  Improvement (%) of Body Weight Day 42: 5.1%
  Improvement (%) of Breast Weight: 16.1%
  Improvement (%) of Carcass Yield: 2.9%
  Improvement (%) of Feed Efficiency (FE): 9.7%
[3]; 0 vs 5 ppm, 7 days
  Improvement (%) of Average Daily Gain: 23.8%
  Improvement (%) of Body Weight Day 42: 4.1%
  Improvement (%) of Breast Weight: 12.6%
  Improvement (%) of Carcass Yield: 3.9%
  Improvement (%) of Feed Efficiency (FE): 33.7%
[3]; 0 vs 5 ppm, 14 days
  Improvement (%) of Average Daily Gain: 13.7%
  Improvement (%) of Body Weight Day 42: 8.0%
  Improvement (%) of Breast Weight: 12.6%
  Improvement (%) of Carcass Yield: 2.8%
  Improvement (%) of Feed Efficiency (FE): 9.9%
[3]; [6]
  Body Weight Day 42: 4.816 lb
  Breast Weight: 1.133 lb
  Breast Yield: 23.91%
  Carcass Yield: 81.45%
  Feed Efficiency (FE) (Feed/Gain Ratio): 3.831
[3]; [7]
  Body Weight Day 42: 4.898 lb
  Breast Weight: 1.138 lb
  Breast Yield: 24.27%
  Carcass Yield: 79.79%
  Feed Efficiency (FE) (Feed/Gain Ratio): 2.632
[3]; [8]
  Body Weight Day 42: 4.902 lb
  Breast Weight: 1.191 lb
  Breast Yield: 23.82%
  Carcass Yield: 79.71%
  Feed Efficiency (FE) (Feed/Gain Ratio): 3.085
[3]; [9]
  Body Weight Day 42: 4.956 lb
  Breast Weight: 1.268 lb
  Breast Yield: 25.11%
  Carcass Yield: 80.62%
  Feed Efficiency (FE) (Feed/Gain Ratio): 2.301
[3]; [10]
  Body Weight Day 42: 4.910 lb
  Breast Weight: 1.230 lb
  Breast Yield: 26.12%
  Carcass Yield: 81.41%
  Feed Efficiency (FE) (Feed/Gain Ratio): 2.760
[3]; [11]
  Body Weight Day 42: 5.093 lb
  Breast Weight: 1.230 lb
  Breast Yield: 24.20%
  Carcass Yield: 80.51%
  Feed Efficiency (FE) (Feed/Gain Ratio): 2.295
[3]; 5 ppm, 14 days (Z5-14d) versus Z0-0d, day 42
  body weight increase versus controls: 0.38 lb
[3]; 5 ppm, 14 days, 0.38 lb/0.174 lb/day
  reduction of time to reach the target market weight: approximately 2 days
[3]; any level (1, 3, 5 ppm), either feeding duration (7 or 14 day)
  effect on mean mortality rates compared to the control group: no significant effect
[3]; average over 1, 3, 5 ppm and 7, 14 days, control 25.46%
  breast yield, average of the zilpaterol treatment groups: 24.57%
Japanese quails
  feed conversion ratio: improved
  weight gain, final body weight, feed intake and carcass, thigh, breast liver and carcass weight: not a significant difference
chickens
  feed efficiency: improved

## CC(CCc1ccc(O)cc1)NCC(O)c1ccc(O)cc1 (stereo not drawn) [ractopamine]
Broiler chickens [4]
  daily body weight gain: not significantly affected
  feed conversion: not significantly affected
  feed intake: not significantly affected
